For five molecules, Ki results are on record in patent publication US8426422B2, “Apoptosis-inducing agents for the treatment of cancer and immune and autoimmune diseases” (Abbvie Inc., priority 2009, dated 2013).

GST-Bcl-2, sequence (P10415 whole entry): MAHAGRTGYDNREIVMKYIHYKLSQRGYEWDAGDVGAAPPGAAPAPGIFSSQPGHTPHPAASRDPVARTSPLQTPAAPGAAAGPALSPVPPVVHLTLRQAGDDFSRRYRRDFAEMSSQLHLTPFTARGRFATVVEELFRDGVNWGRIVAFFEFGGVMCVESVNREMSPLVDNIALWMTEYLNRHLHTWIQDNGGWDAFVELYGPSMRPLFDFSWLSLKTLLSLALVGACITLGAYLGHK

In this test the target is GST-Bcl-2 (Homo sapiens, UniProt P10415). Description: Time Resolved-Fluorescence Resonance Energy Transfer (TR-FRET) Bcl-2 binding assay. The note with it: GST-Bcl-2 1 nM, F-Bak peptide probe 100 nM, Tb-anti-GST 1 nM; 3 hours at room temperature; Ki by Wang's equation. On the procedure:
Determination of the utility of compounds having Formula (I) as binders to and inhibitors of anti-apoptotic Bcl-2 proteins was performed using the Time Resolved-Fluorescence Resonance Energy Transfer (TR-FRET) Assay. Tb-anti-GST antibody was purchased from Invitrogen (Catalog No. PV4216).
Representative compounds were serially diluted in dimethyl sulfoxide (DMSO) starting at 50 μM (2x starting concentration; 10% DMSO) and 10 μL were transferred into a 384-well plate. The samples are then mixed on a shaker for 1 minute and incubated for an additional 3 hours at room temperature. For each assay, the probe/antibody and protein/probe/antibody were included on each assay plate as negative and positive controls, respectively. Fluorescence was measured on the ENVISION plate reader (Perkin Elmer) using a 340/35 nm excitation filter and 520/525 (F-Bak peptide) and 495/510 nm (Tb-labeled […] antibody) emission filters. Inhibition constants (Ki) are shown in TABLE 2 below and were determined using Wang's equation (Wang Z.-X. An Exact Mathematical Expression For Describing Competitive Binding Of Two Different Ligands To A Protein Molecule. FEBS Lett. 1995, 360:111-4).
The inhibition constant (Ki) is the dissociation constant of an enzyme-inhibitor complex or a protein/small molecule complex, wherein the small molecule is inhibiting binding of one protein to another protein. So a large Ki value indicates a low binding affinity and a small Ki value indicates a high binding affinity.
The compounds are therefore expected to have utility in treatment of diseases during which anti-apoptotic Bcl-2 protein is expressed.
On the technique in general: In TR-FRET formats the signal depends on donor and acceptor labels being close together.
Broadly, the Ki is the equilibrium dissociation constant of an inhibitor or competing ligand from its target. Consider `O=C(NS(=O)(=O)c1ccccc1)c1ccc(N2CCN(Cc3ccccc3-c3ccc(Cl)cc3)CC2)cc1` [Example 6, 4-{4-[(4′-chloro-1,1′-biphenyl-2-yl)methyl]piperazin-1-yl}-N-(phenylsulfonyl)benzamide], for which the Ki amounted to 212 nM. With `CC1(C)CCC(CN2CCN(c3ccc(C(=O)NS(=O)(=O)c4cccc5cnccc45)c(Oc4ccc5[nH]ccc5c4)c3)CC2)=C(c2ccc(Cl)cc2)C1` [Example 37, 4-(4-{[2-(4-chlorophenyl)-4,4-dimethylcyclohex-1-en-1-yl]methyl}piperazin-1-yl)-2-(1H-indol-5-yloxy)-N-(isoquinolin-5-ylsulfonyl)benzamide] the figure was 10.6 nM; with `O=C(NS(=O)(=O)c1cccc(F)c1)c1ccc(N2CCN(Cc3ccccc3-c3ccc(Cl)cc3)CC2)cc1Oc1ccccc1` [Example 23, 4-{4-[(4′-chloro-1,1′-biphenyl-2-yl)methyl]piperazin-1-yl}-N-[(3-fluorophenyl)sulfonyl]-2-phenoxybenzamide], 27.3 nM; with `O=C(NS(=O)(=O)c1cccc([N+](=O)[O-])c1)c1ccc(N2CCN(Cc3ccccc3-c3ccc(Cl)cc3)CC2)cc1Cc1ccccc1` [Example 15, 2-benzyl-4-{4-[(4′-chloro-1,1′-biphenyl-2-yl)methyl]piperazin-1-yl}-N-[(3-nitrophenyl)sulfonyl]benzamide], 48 nM. `CC1(C)CCC(CN2CCN(c3ccc(C(=O)NS(=O)(=O)c4cccc(C#N)c4)c(Oc4ccc5[nH]ccc5c4)c3)CC2)=C(c2ccc(Cl)cc2)C1` [Example 32, 4-(4-{[2-(4-chlorophenyl)-4,4-dimethylcyclohex-1-en-1-yl]methyl}piperazin-1-yl)-N-[(3-cyanophenyl)sulfonyl]-2-(1H-indol-5-yloxy)benzamide]: the Ki turned out to be 5.94 nM.
